Consider 6 compounds from article PMC1241434 (Environmental Health Perspectives, 2003).

In one data set the test system is estrogenic activity. The note with it: 10^-5 M; ref Nishikawa et al. (2000); cited from earlier work.
For data set [1], the target named is T1, human androgen receptor (hAR) (Homo sapiens, UniProt P10275).
T1 sequence (P10275 1-920): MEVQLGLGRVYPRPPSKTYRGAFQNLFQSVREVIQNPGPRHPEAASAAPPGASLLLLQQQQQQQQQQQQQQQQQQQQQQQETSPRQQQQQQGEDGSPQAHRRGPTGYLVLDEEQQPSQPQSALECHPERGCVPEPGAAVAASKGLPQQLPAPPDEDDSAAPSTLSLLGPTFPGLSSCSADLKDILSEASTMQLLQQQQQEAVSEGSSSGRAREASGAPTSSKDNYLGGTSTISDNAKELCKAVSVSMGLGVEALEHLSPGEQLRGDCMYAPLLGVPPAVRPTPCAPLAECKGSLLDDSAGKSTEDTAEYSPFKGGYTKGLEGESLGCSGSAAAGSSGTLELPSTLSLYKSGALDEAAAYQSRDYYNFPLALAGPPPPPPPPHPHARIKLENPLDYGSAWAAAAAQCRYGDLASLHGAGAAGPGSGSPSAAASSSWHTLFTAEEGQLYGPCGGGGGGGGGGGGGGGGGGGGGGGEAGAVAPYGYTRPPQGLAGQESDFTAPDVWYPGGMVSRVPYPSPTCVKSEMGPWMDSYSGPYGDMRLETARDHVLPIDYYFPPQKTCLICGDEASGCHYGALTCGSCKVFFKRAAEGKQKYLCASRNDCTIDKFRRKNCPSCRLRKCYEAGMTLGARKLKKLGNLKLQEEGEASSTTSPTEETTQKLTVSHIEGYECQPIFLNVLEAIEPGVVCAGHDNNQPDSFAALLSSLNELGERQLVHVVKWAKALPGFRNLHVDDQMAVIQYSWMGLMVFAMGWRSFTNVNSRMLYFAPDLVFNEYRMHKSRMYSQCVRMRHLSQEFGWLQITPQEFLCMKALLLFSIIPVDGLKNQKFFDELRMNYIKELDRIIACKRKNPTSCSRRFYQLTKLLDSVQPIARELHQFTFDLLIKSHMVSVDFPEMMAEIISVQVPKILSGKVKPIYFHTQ
Put plainly: hAR reporter gene assay in CHO cells, agonist mode. The settings on record: for hAR-mediated transcriptional activity (androgenicity): 10^-5 M, absence of DHT.

Data set [2] deals with T2, human estrogen receptor-alpha (hER alpha) (Homo sapiens, UniProt P03372).
T2 sequence (P03372 1-595): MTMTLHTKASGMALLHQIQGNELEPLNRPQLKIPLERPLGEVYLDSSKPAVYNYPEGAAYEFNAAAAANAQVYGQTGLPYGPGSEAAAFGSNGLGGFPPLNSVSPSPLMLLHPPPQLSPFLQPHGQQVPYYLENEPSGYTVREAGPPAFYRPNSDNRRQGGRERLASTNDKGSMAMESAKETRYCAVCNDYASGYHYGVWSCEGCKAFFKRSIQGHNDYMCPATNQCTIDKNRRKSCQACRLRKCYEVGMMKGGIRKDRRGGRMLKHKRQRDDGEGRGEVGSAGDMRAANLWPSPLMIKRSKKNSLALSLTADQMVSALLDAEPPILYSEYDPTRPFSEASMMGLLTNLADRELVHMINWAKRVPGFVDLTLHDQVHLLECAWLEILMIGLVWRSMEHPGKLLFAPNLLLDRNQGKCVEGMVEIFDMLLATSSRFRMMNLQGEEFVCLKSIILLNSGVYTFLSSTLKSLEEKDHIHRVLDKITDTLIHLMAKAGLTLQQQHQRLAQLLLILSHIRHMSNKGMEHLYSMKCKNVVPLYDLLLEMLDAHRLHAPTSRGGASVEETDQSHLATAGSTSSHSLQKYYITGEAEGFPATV
Put plainly: hER alpha reporter gene assay in CHO cells, agonist mode. The settings on record: for hER-mediated transcriptional activity (estrogenic activity): 10^-5 M, absence of E2; for estrogenic activity of steroids: at the concentrations tested.

The target in data set [3] is T1, human androgen receptor (hAR). Put plainly: hAR reporter gene assay in CHO cells, antagonist mode. The settings on record: for inhibition of hAR-mediated transcriptional activity by DHT: 10^-5 M, presence of 10^-10 M DHT. A general note: Reporter assays use an easily measured gene product as a stand-in for the process of interest.
Another data set has as its system CHO-K1 cells. The data set can be described thus: Renilla luciferase activity as toxicity control in transfected CHO cells. The settings on record: conditions of the hAR antagonist assay, data not shown.
In data set [4] the target is T2, human estrogen receptor-alpha (hER alpha). Put plainly: hER alpha reporter gene assay in CHO cells, antagonist mode. The settings on record: 10^-5 M, presence of 10-11 M E2, versus vehicle.
A further data set concerns the target T3, human AR (Homo sapiens, UniProt P10275).
T3 sequence (P10275 1-920): T1 sequence (P10275 1-920)
The data set can be described thus: Competitive binding assay for AR. The settings on record: ratio of IC50 of mibolerone to that of test compound, mibolerone set at 100.

The target of another data set is T4, human ER (Homo sapiens, UniProt P03372).
T4 sequence (P03372 1-595): T2 sequence (P03372 1-595)
The data set can be described thus: Competitive binding assay for ER. The note with it: for RBA-E (relative binding affinity for hER): ratio of IC50 of DES to that of test compound, DES set at 100.

Take `O=[N+]([O-])c1ccc(Oc2c(Cl)cc(Cl)cc2Cl)cc1` [CNP, 2,4,6-trichlorophenyl-4-nitrophenyl ether]: in the data set with estrogenic activity, the “estrogenic activity in yeast two-hybrid assay” value was “negative”. In addition, the “hAR-mediated transcriptional activity (androgenicity)” value in data set [1] was “weakly androgenic”. Also, the “hER-mediated transcriptional activity (estrogenic activity)” value (“hER-mediated transcriptional activity” for short) in data set [2] is “potent estrogenic activity”. In addition, the “inhibition of hAR-mediated transcriptional activity by DHT” value in data set [3] is reported as “inhibited”. In addition, the “antiandrogenic potency, fold higher than o,p-DDT” value in data set [3] (IC50 ratio versus o,p-DDT) is reported as ~10 fold. Moreover, the “antiandrogenic potency, fold higher than p,p-DDE” value in data set [3] (IC50 ratio versus p,p-DDE) is given as ~14 fold. For the same compound, in data set [3] (IC50 ratio versus vinclozolin), the “antiandrogenic potency, fold higher than vinclozolin” value was “approximately 3.5 fold”. For the same compound, the “effect on cellular viability (Renilla luciferase activity)” value with CHO-K1 cells is “did not affect the cellular viability”. Further, the “effect on estrogenic activity of E2 (antiestrogenic activity)” value (from here on “effect on estrogenic activity of E2”) in data set [4] is “did not show any significant differences”. Also, on human AR, the “RBA-A (relative binding affinity for hAR)” value is recorded as 8.64. Moreover, on human ER, the “effect on the binding of E2 to hER” value was “very low” and the “RBA-E (relative binding affinity for hER)” value is given as < 0.0009.
Regarding `Nc1ccc(Oc2c(Cl)cc(Cl)cc2Cl)cc1` [CNP-amino, 2,4,6-trichlorophenyl-4-aminophenyl ether], the “hAR-mediated transcriptional activity (androgenicity)” value in data set [1] is given as “no androgenicity”. Also, the “hER-mediated transcriptional activity” value in data set [2] is “potent estrogenic activity”. In addition, the “estrogenic activity, fold higher than p,p-DDT” value in data set [2] (versus p,p-DDT) is “about 4 fold”. Moreover, in data set [3], the “inhibition of hAR-mediated transcriptional activity by DHT” value is on record as “inhibited”. In addition, the “antiandrogen intensity relative to CNP” value in data set [3] (ratio to CNP) is reported as “more than 1/10”. In addition, the “effect on cellular viability (Renilla luciferase activity)” value in the data set with CHO-K1 cells is “did not affect the cellular viability”. The “effect on estrogenic activity of E2” value in data set [4] was “did not show any significant differences”. The “RBA-A (relative binding affinity for hAR)” value on human AR came to 0.33. For the same compound, the “RBA-E (relative binding affinity for hER)” value at human ER came to 0.036.
Take `C[C@]12CC[C@@H]3c4ccc(O)cc4CC[C@H]3[C@@H]1CCC2=O` [estrone, reference compound]: the “androgenic activity of steroids” value in data set [1] (at the concentrations tested) is listed as “only low activity”.
Turning to `Clc1ccc(C(c2ccccc2Cl)C(Cl)(Cl)Cl)cc1` (centres unmarked) [o,p-DDT, 1,1,1-trichloro-2-(p-chlorophenyl)-2-(o-chlorophenyl)ethane, reference compound], the “hER-mediated transcriptional activity” value in data set [2] was “potent estrogenic activity”. The “effect on estrogenic activity of E2” value in data set [4] was “did not show any significant differences”.
With `CC(=O)[C@H]1CC[C@H]2[C@@H]3CCC4=CC(=O)CC[C@]4(C)[C@H]3CC[C@]12C` [progesterone, reference compound], in data set [2], the “estrogenic activity of steroids” value is “inactive”.
Take `C[C@]12CC[C@H]3[C@@H](CCC4=CC(=O)CC[C@@]43C)[C@@H]1CC[C@@H]2O` [testosterone, reference compound]: the “estrogenic activity of steroids” value in data set [2] is listed as “positive by this assay at high concentrations”.
